Reference: patent publication EP0636174B1, “HYALURONAN RECEPTOR (RHAMM = RECEPTOR FOR HYLURONAN MEDIATED MOBILITY) AND HYALURONAN BINDING PEPTIDES” (UNIVERSITY OF MANITOBA, priority 1992, dated 1993)

Key:
[1] = Hyaluronan-Sepharose affinity chromatography of peptides; format: binding; conditions: 0.15 M NaCl in PBS; Figure 13B
Protocol: To further test the inventor's HA-binding motif model, a number of synthetic peptides were prepared and their HA-binding ability was determined using HA-sepharose. A tyrosine residue was added to one end of each synthetic peptide for convenient spectrophotometric quantitation.
HA-Sepharose affinity gel was prepared according to the manufacturer's instruction. […]
Hyaluronan (Sigma) was coupled to AH-Sepharose 4B (Pharmacia) according to the manufacturer's instructions, resulting in an HA-Sepharose gel. Peptides, ordered from Coast Scientific (San Diego) were HPLC purified. These and randomized peptides, whose sequence was generated by computer, were applied to HA-Sepharose in the presence of 0.15 M NaCl in PBS buffer. Unbound peptides were removed by extensive washing with the same buffer. The amounts of peptides applied and that removed were determined by measuring optical density (O.D.) at 214 nm.

[2] = target: T1, GST-RHAMM fusion protein (Mus musculus, UniProt Q00547); test: Competition by peptides with binding of biotin-labelled HA to transblotted GST-RHAMM fusion protein; conditions: biotin-labelled HA pre-incubated for 1 h with 3 mg/ml peptide; Figure 13A
T1 construct: A complete RHAMM cDNA (1.43 kb) was expressed as a fusion protein with pGEX-2T in E. coli HB101; made in house; host or cells: E. coli HB101 (pGEX-2T)
T1 sequence (Q00547 319-794): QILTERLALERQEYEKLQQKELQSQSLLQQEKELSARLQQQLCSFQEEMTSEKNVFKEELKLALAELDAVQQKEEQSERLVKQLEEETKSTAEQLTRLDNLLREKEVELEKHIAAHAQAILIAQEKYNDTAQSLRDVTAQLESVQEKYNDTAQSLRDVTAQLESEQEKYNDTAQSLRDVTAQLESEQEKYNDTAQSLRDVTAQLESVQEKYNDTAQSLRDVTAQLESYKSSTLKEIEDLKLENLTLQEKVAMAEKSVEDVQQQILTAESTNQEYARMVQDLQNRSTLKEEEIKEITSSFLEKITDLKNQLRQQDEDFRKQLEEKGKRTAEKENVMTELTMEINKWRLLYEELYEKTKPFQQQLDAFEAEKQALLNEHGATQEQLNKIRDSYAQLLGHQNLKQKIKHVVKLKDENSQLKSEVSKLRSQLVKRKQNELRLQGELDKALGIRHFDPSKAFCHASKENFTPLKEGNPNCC
Protocol: Transblotted RHAMM fusion protein was stained with a 1:10,000 dilution of biotin-labelled HA that had been pre-incubated for 1 h with 3 mg/ml BSA (Figure 13A, lane 1) , 3 mg/ml peptide^aa401-411 (lane 2) or 3 mg/ml peptide^aa423-432 (lane 3).
GST-RHAMM fusion protein was electrophoresed on 10% SDS-PAGE and transblotted onto a nitrocellulose membrane. The membrane was cut into 3 strips and each was stained with 1:3000 diluted biotin-labelled HA in the presence of 3 mg/ml BSA, 3 mg/ml peptide^aa401-411 and 3 mg/ml peptide^aa423-432, respectively. The other steps were the same as described in immunoblots.

K^423L R S Q L V K R K^432 (KLKSQLVKRK) [peptide^aa423-432]
binding to HA-Sepharose [1]: efficiently bound
blocking of the binding of biotin-labelled HA to expressed GST-RHAMM fusion protein [2]: blocked
